Reference: patent US9833497B2, “Human originated EGF domain proteins and use of the same” (CHENGDU SOURCEBIO LIMITED-LIABILITY COMPANY, priority 2013, dated 2017)

Legend:
Format in all cases: cell-based
E. coli DH5α = assay: Antibacterial activity: MIC and growth curve against E. coli DH5α in 96-well plate; details: minimal inhibitory concentration against E. coli DH5α; 96-well plate, 5×10^5 CFU/mL, 37° C., judged after 8 h
Outline: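 Log-phase DH5α (OD600 about 0.5, 37° C, 185 rpm in LB) was pelleted, resuspended in fresh LB and seeded at 5×10^5 CFU/mL with recombinant protein at 50, 25 and 12.5 μg/mL (two-fold series), in triplicate. Plates were shaken at 175 rpm, 37° C, and OD600 was read every 30 min. MIC was the lowest concentration with no growth.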

Proteus mirabilis = assay: MIC against Gram-negative bacteria: Proteus mirabilis; details: for MIC against P. mirabilis: Proteus mirabilis; for MIC against P. mirabilis / MIC (μg/mL) P. mirabilis: 5×10^5 CFU/mL
Outline: (§1)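 The recombinant human-originated EGF domain proteins were serially diluted two-fold against bacteria at 5×10^5 CFU/mL in LB medium. After shaken incubation at 37° C, the lowest concentration with no bacterial growth was recorded as the MIC.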

Proteus vulgaris = assay: MIC against Gram-negative bacteria: Proteus vulgaris; details: for MIC against P. vulgaris: Proteus vulgaris; for MIC against P. vulgaris / MIC (μg/mL) P. vulgaris: 5×10^5 CFU/mL
Outline: as §1

Aeromonas hydrophila = assay: MIC against Gram-negative bacteria: Aeromonas hydrophila; details: for MIC against A. hydrophila: Aeromonas hydrophila; for MIC against A. hydrophila / MIC (μg/mL) A. hydrophila: 5×10^5 CFU/mL
Outline: as §1

Enterobacter cloacae = assay: MIC against Gram-negative bacteria: Enterobacter cloacae; details: for MIC against E. cloacae: Enterobacter cloacae; for MIC against E. cloacae / MIC (μg/mL) E. cloacae: 5×10^5 CFU/mL
Outline: as §1

Pseudomonas aeruginosa = assay: MIC against Gram-negative bacteria: Pseudomonas aeruginosa; details: for MIC against P. aeruginosa: Pseudomonas aeruginosa; for MIC against P. aeruginosa / MIC (μg/mL) P. aeruginosa: 5×10^5 CFU/mL
Outline: as §1

Citrobacter diversus = assay: MIC against Gram-negative bacteria: Citrobacter diversus; details: for MIC against C. diversus: Citrobacter diversus; for MIC against C. diversus / MIC (μg/mL) C. diversus: 5×10^5 CFU/mL
Outline: as §1

Serratia marcescens = assay: MIC against Gram-negative bacteria: Serratia marcescens; details: for MIC against S. marcescens: Serratia marcescens; for MIC against S. marcescens / MIC (μg/mL) S. marcescens: 5×10^5 CFU/mL
Outline: as §1

E. coli BL21 = assay: MIC against Gram-negative bacteria: E. coli BL21; details: E. coli BL21; for MIC against E. coli BL21 / MIC (μg/mL) E. coli BL21: 5×10^5 CFU/mL
Outline: as §1

Klebsiella pneumonia = assay: MIC against Gram-negative bacteria: Klebsiella pneumonia; details: for MIC against K. pneumonia: Klebsiella pneumonia; for MIC against K. pneumonia / MIC (μg/mL) K. pneumonia: 5×10^5 CFU/mL
Outline: as §1

Moraxella catarrhalis = assay: MIC against Gram-negative bacteria: Moraxella catarrhalis; details: for MIC against M. catarrhalis: Moraxella catarrhalis; for MIC against M. catarrhalis / MIC (μg/mL) M. catarrhalis: 5×10^5 CFU/mL
Outline: as §1

[1] = P. mirabilis, 10 h cultivation at 37° C.
[2] = P. vulgaris, 10 h cultivation at 37° C.
[3] = A. hydrophila, 10 h cultivation at 37° C.
[4] = E. cloacae, 10 h cultivation at 37° C.
[5] = P. aeruginosa, 10 h cultivation at 37° C.
[6] = C. diversus, 10 h cultivation at 37° C.
[7] = S. marcescens, 10 h cultivation at 37° C.
[8] = K. pneumonia, 10 h cultivation at 37° C.
[9] = M. catarrhalis, 10 h cultivation at 37° C.

Substance | MIC (E. coli DH5α) [µg/mL] | MIC against P. mirabilis (Proteus mirabilis; 96-well plate, 37° C., 10 h) [µg/mL] | MIC against P. vulgaris (Proteus vulgaris; 96-well plate, 37° C., 10 h) [µg/mL] | MIC against A. hydrophila (Aeromonas hydrophila; 96-well plate, 37° C., 10 h) [µg/mL] | MIC against E. cloacae (Enterobacter cloacae; 96-well plate, 37° C., 10 h) [µg/mL] | MIC against P. aeruginosa (Pseudomonas aeruginosa; 96-well plate, 37° C., 10 h) [µg/mL] | MIC against C. diversus (Citrobacter diversus; 96-well plate, 37° C., 10 h) [µg/mL] | MIC against S. marcescens (Serratia marcescens; 96-well plate, 37° C., 10 h) [µg/mL] | MIC against E. coli BL21 (E. coli BL21; 96-well plate, 37° C., 10 h) [µg/mL] | MIC against K. pneumonia (Klebsiella pneumonia; 96-well plate, 37° C., 10 h) [µg/mL] | MIC against M. catarrhalis (Moraxella catarrhalis; 96-well plate, 37° C., 10 h) [µg/mL] | MIC (μg/mL) P. mirabilis (Proteus mirabilis; [1]) [µg/mL] | MIC (μg/mL) P. vulgaris (Proteus vulgaris; [2]) [µg/mL] | MIC (μg/mL) A. hydrophila (Aeromonas hydrophila; [3]) [µg/mL] | MIC (μg/mL) E. cloacae (Enterobacter cloacae; [4]) [µg/mL] | MIC (μg/mL) P. aeruginosa (Pseudomonas aeruginosa; [5]) [µg/mL] | MIC (μg/mL) C. diversus (Citrobacter diversus; [6]) [µg/mL] | MIC (μg/mL) S. marcescens (Serratia marcescens; [7]) [µg/mL] | MIC (μg/mL) E. coli BL21 (E. coli BL21; 10 h cultivation at 37° C.) [µg/mL] | MIC (μg/mL) K. pneumonia (Klebsiella pneumonia; [8]) [µg/mL] | other results
PRT1213 (HSDYCSQNTCLNGGKCSWTHGAGYVCKCPPQFSGKHCE; listed as Homo sapiens) | 25 | 25 | 50 | 50 | 100 | 50 | 25 | 25 | 25 | 25 | 12.5 |  |  |  |  |  |  |  |  |  | 
PRT1216 (YPDACKRSPCQHGGSCTGLPSGGYQCTCLSQFTGRNCE; listed as Homo sapiens) | 50 | 50 | 25 | 25 | 25 | 50 | 50 | 12.5 | 12.5 | 12.5 | 12.5 |  |  |  |  |  |  |  |  |  | 
PRT183 (ECIPHNGCRHGTCSTPWQCTCDEGWGGLFCD; listed as Homo sapiens) | 12.5 |  |  |  |  |  |  |  |  |  |  | 12.5 | 25 | 25 | 12.5 | 12.5 | 12.5 | 12.5 | 12.5 | 25 | MIC (μg/mL) M. catarrhalis (Moraxella catarrhalis; [9]): 25 µg/mL
PRT1034 (DENECEQNNGGCSEICVNLKNSYRCECGVGRVLRSDGKTCE; listed as Homo sapiens) | 25 |  |  |  |  |  |  |  |  |  |  |  |  |  |  |  |  |  |  |  | MIC (Proteus mirabilis; [1]): 50 µg/mL; MIC (Proteus vulgaris; [2]): 12.5 µg/mL; MIC (Aeromonas hydrophila; [3]): 50 µg/mL; MIC (Enterobacter cloacae; [4]): 50 µg/mL; MIC (Pseudomonas aeruginosa; [5]): 25 µg/mL; MIC (Citrobacter diversus; [6]): 50 µg/mL; MIC (Serratia marcescens; [7]): 50 µg/mL; MIC (E. coli BL21; 10 h cultivation at 37° C.): 50 µg/mL; MIC (Klebsiella pneumonia; [8]): 12.5 µg/mL; MIC (Moraxella catarrhalis; [9]): 12.5 µg/mL
PRT1408 (NEICSVDCGSHGVCMGGTCRCEEGWTGPACNQ; listed as Homo sapiens) | 25 |  |  |  |  |  |  |  |  |  |  |  |  |  |  |  |  |  |  |  | MIC against P. mirabilis (Proteus mirabilis; 10 h cultivation at 37° C.): 12.5 µg/mL; MIC against P. vulgaris (Proteus vulgaris; 10 h cultivation at 37° C.): 12.5 µg/mL; MIC against A. hydrophila (Aeromonas hydrophila; 10 h cultivation at 37° C.): 12.5 µg/mL; MIC against E. cloacae (Enterobacter cloacae; 10 h cultivation at 37° C.): 25 µg/mL; MIC against P. aeruginosa (Pseudomonas aeruginosa; 10 h cultivation at 37° C.): 25 µg/mL; MIC against C. diversus (Citrobacter diversus; 10 h cultivation at 37° C.): 12.5 µg/mL; MIC against S. marcescens (Serratia marcescens; 10 h cultivation at 37° C.): 25 µg/mL; MIC against E. coli BL21 (E. coli BL21; 10 h cultivation at 37° C.): 12.5 µg/mL; MIC against K. pneumonia (Klebsiella pneumonia; 10 h cultivation at 37° C.): 12.5 µg/mL; MIC against M. catarrhalis (Moraxella catarrhalis; 10 h cultivation at 37° C.): 12.5 µg/mL
PRT869 (CKCNLHATVCVYDNSKLTCECEHNTTGPDCGKCKKNYQGRPWSPGSYLPIPKGTANTCIP; listed as Homo sapiens) | 12.5 |  |  |  |  |  |  |  |  |  |  | 12.5 | 12.5 | 12.5 | 12.5 | 12.5 | 12.5 | 50 | 25 | 12.5 | MIC (μg/mL) M. catarrhalis (Moraxella catarrhalis; [9]): 12.5 µg/mL
